Assay results reported in patent publication US20250163070A1, “SPIRO COMPOUND AND APPLICATION THEREOF” (HITGEN INC., priority 2022, published 2025).

Assays:
CRBN/DDB1 protein [1] = molecular target: T1, CRBN/DDB1 protein (Homo sapiens (Human), UniProt Q96SW2); test: Inhibition of CRBN/DDB1 protein activity, fluorescence resonance energy transfer (FRET) method with FITC-labeled thalidomide analog; assay type: binding; details: 5.0 nM CRBN/DDB1, 50.0 nM FITC-labeled thalidomide analog, 25° C., pH 7.0
Excerpt: Experiment 1 Detection of Compounds Inhibition of CRBN/DDB1 Protein Activity (Using a Fluorescence Resonance Energy Transfer (FRET) Method)
Microplate reader (BMG PHERAstar FSX), ECHO (LABCYTE Echo 665), microplate thermostatic oscillator (Hangzhou Ruicheng Instrument Co., Ltd.), disodium hydrogen phosphate (Sigma-Aldrich (Shanghai) Trading Co., Ltd.), sodium dihydrogen phosphate (Sigma-Aldrich (Shanghai) Trading Co., Ltd.), bovine serum albumin (Sigma-Aldrich (Shanghai) Trading Co., Ltd.), Anti-6His-Tb crypate Gold (Cisbio Bioassays Company CISBIO), CRBN/DDB1 protein (HitGen Inc.), 384-well plate (Grenier Bio-one (Shanghai) Co., Ltd.).
The compound powders were dissolved in DMSO and serially diluted using ECHO. The resulting dilutions were individually added to 384-well reaction plates, ensuring that the final concentration of DMSO in the entire reaction system (10.0 μL) was 1.0%. An equal volume of DMSO was added as a control.
The CRBN/DDB1 protein was diluted to twice the required final concentration (5.0 nM) by addition of 20 mM disodium hydrogen phosphate, 20 mM sodium dihydrogen phosphate, 0.08% bovine serum albumin and a buffer with pH 7.0. […] The Anti-6His-Tb crypate Gold and FITC-labeled thalidomide analog were diluted to twice the required final concentration by addition of 20 mM disodium hydrogen phosphate, 20 mM sodium dihydrogen phosphate, 0.08% bovine serum albumin and the buffer with pH 7.0. The final concentration of Anti-6His-Tb crypate Gold was 0.2 nM, and the final concentration of the FITC-labeled thalidomide analog was 50.0 nM, so as to obtain a mixture of Anti-6His-Tb crypate Gold/FITC-labeled thalidomide analog. 5.0 μL of the mixture of Anti-6His-Tb crypate Gold/FITC-labeled thalidomide analog was individually added to the 384-well reaction plates, followed by centrifugation at 1000 rpm for 1 min. Then the reaction plates were incubated in the microplate thermostatic oscillator at 25° C. and 250 rpm for 30 min. After the reaction was completed, the fluorescence signal values in the 384-well reaction plates were read using the microplate reader (Ex=337 nm, Em=520/490 nm).
A solvent group (containing 5.0 nM CRBN/DDB1, 0.2 nM Anti-6His-Tb crypate Gold, 50.0 nM FITC-labeled thalidomide analog and 1.0% DMSO) was used as a negative control. A reaction buffer group (containing 0.2 nM Anti-6His-Tb crypate Gold, 50.0 nM FITC-labeled thalidomide analog and 1.0% DMSO) was used as the blank control.
The residual activity percentage at each concentration was calculated using the following formula: […]
A dose-effect curve was fitted using GraphPad 6.0 to calculate the IC50 value.

CRBN/DDB1 protein [2] = molecular target: T1, CRBN/DDB1 protein; test: Isothermal titration calorimetry (ITC) detection of compound binding to CRBN/DDB1; details: 25° C., pH 7.0, 10 μM protein, 100 μM compound, one set of sites model
Protocol: Experiment 2 Isothermal Titration Calorimetry (ITC) Detection of Compound Binding to CRBN/DDB1
6.1 mL of 200 mM disodium hydrogen phosphate aqueous solution and 3.9 mL of 200 mM sodium dihydrogen phosphate aqueous solution were mixed to obtain 200 mM PB buffer (pH 7.0). Then, 5397 μL of deionized water was mixed with 600 μL of 200 mM PB buffer and 3 μL of 10% Tween 20 aqueous solution to prepare a detection buffer with a pH of 7.0.
The protein storage solution was subjected to buffer exchange using the detection buffer prepared above according to the instruction of the Zeba™ Spin Desalting Columns (Thermo Fisher Scientific Inc., #89882). After the exchange was completed, ultraviolet (UV) absorption of the protein solution at OD280nm was measured using the microplate reader (BMG LABTECH Inc., PHERAstar FSX), and the concentration was calculated. Based on the measured concentration, the protein was diluted to 10 μM with the detection buffer, and added with DMSO to a final concentration of 1%, resulting in a total volume of 300 μL. After a brief centrifugation at room temperature, the solution was collected for later use.
The compound powder was dissolved in DMSO and diluted to 100 μM with the detection buffer prepared above. The DMSO concentration was adjusted to a final concentration of 1% with a total volume of 100 μL. […]

T1 sequence (Q96SW2 whole entry, species assumed): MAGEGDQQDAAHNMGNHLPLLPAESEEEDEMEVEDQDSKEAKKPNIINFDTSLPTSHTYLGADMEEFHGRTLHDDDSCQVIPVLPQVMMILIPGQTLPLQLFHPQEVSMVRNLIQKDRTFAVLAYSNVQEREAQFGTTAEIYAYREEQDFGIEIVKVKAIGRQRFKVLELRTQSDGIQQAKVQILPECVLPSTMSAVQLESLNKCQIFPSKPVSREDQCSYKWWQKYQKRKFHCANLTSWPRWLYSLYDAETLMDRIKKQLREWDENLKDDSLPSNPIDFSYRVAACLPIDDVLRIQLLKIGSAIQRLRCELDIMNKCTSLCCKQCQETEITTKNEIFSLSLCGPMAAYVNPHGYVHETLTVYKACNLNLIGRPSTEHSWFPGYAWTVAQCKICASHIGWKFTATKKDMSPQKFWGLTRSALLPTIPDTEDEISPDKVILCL
T1 sequence (Q16531 whole entry partner, species assumed): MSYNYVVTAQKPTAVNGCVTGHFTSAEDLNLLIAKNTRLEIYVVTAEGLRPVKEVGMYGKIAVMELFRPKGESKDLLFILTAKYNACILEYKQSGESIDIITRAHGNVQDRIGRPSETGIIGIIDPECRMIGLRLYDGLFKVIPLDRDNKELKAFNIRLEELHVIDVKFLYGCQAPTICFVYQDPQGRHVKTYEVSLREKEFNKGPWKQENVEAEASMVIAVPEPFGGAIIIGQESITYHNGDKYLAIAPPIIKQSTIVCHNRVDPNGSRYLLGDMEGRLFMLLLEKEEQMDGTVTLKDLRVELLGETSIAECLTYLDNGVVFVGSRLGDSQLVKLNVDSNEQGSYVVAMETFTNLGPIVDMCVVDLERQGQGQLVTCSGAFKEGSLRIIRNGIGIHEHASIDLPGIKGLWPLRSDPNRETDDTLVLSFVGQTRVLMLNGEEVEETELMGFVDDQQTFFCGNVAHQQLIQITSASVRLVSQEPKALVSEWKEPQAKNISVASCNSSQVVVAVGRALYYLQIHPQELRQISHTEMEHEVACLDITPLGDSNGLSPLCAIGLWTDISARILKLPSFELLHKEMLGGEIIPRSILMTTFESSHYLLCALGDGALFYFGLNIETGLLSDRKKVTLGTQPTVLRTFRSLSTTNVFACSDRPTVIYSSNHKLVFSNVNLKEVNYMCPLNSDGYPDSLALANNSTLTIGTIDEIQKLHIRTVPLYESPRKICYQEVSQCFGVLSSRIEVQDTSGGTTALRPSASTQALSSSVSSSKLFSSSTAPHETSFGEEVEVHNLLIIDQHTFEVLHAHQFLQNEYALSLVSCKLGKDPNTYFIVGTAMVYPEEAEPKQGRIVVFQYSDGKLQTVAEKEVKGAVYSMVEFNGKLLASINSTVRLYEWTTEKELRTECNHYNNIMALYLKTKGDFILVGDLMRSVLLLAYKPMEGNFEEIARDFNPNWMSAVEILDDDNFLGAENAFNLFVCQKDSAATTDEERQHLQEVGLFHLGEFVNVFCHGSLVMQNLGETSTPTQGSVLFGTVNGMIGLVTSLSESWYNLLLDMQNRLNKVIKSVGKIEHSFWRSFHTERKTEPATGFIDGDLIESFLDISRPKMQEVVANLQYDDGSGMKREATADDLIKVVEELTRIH

**Q.** O=C1CC2(CN(C(=O)c3cc4ccccc4s3)C2)C(=O)N1 [Compound A12] was tested. Which IC50 (CRBN/DDB1 protein [1]) did it give?
**A.** 1000 to 10000 nM

**Q.** For O=C1CC2(CN(C(=O)c3csc4ccccc34)C2)C(=O)N1 [Compound A13], which IC50 (CRBN/DDB1 protein [1]) is on record?
**A.** 1000 to 10000 nM

**Q.** For CN(C)C(=O)c1sccc1C(=O)N1CC2(CC(=O)NC2=O)C1 [Compound A15], which IC50 (CRBN/DDB1 protein [1]) is on record?
**A.** 1000 to 10000 nM

**Q.** Which IC50 (CRBN/DDB1 protein [1]) does the source give for O=C1CC2(CN(C(=O)c3c(C(=O)N4CC5(COC5)C4)sc4ccccc34)C2)C(=O)N1 [Compound A9] here?
**A.** < 100 nM

**Q.** For NC(=O)c1sc2ccccc2c1C(=O)N1CC2(CC(=O)NC2=O)C1 [Compound A10], which IC50 (CRBN/DDB1 protein [1]) is on record?
**A.** 100 to 1000 nM

**Q.** With CN(C)C(=O)c1ccc(C(=O)N2CC3(CC(=O)NC3=O)C2)cc1 [Compound A4] as the molecule, how does the IC50 (CRBN/DDB1 protein [1]) read?
**A.** 1000 to 10000 nM

**Q.** How did the IC50 (CRBN/DDB1 protein [1]) turn out when COC(=O)c1ccccc1C(=O)N1CC2(CC(=O)NC2=O)C1 [Compound A14] was run?
**A.** 100 to 1000 nM

**Q.** With CN(C)C(=O)c1c(C(=O)N2CC3(CC(=O)NC3=O)C2)sc2ccccc12 [Compound A2] as the molecule, how does the IC50 (CRBN/DDB1 protein [1]) read?
**A.** 100 to 1000 nM

**Q.** How did the IC50 (CRBN/DDB1 protein [1]) turn out when CC(=O)N1CCN(C(=O)c2sc3ccccc3c2C(=O)N2CC3(CC(=O)NC3=O)C2)CC1 [Compound A11] was run?
**A.** < 100 nM

**Q.** Which IC50 (CRBN/DDB1 protein [1]) does the source give for O=C1CC2(CN(C(=O)c3c(C(=O)N4CCNCC4)sc4ccccc34)C2)C(=O)N1 [Compound A8] here?
**A.** < 100 nM

**Q.** For CN(C)C(=O)c1[nH]c2ccccc2c1C(=O)N1CC2(CC(=O)NC2=O)C1 [Compound A3], which Kd (CRBN/DDB1 protein [2]) is on record?
**A.** 15 nM

**Q.** What about the IC50 (CRBN/DDB1 protein [1]) of the same molecule?
**A.** < 100 nM

**Q.** CN(C)C(=O)c1cccc(C(=O)N2CC3(CC(=O)NC3=O)C2)c1 [Compound A5] was tested. Which IC50 (CRBN/DDB1 protein [1]) did it give?
**A.** 1000 to 10000 nM

**Q.** Which IC50 (CRBN/DDB1 protein [1]) does the source give for CN(C)C(=O)c1cscc1C(=O)N1CC2(CC(=O)NC2=O)C1 [Compound A6] here?
**A.** 100 to 1000 nM

**Q.** For CN(C)C(=O)c1[nH]c2ccccc2c1CN1CC2(CC(=O)NC2=O)C1 [Compound A17], which IC50 (CRBN/DDB1 protein [1]) is on record?
**A.** 100000 to 200000 nM

**Q.** How did the IC50 (CRBN/DDB1 protein [1]) turn out when O=C1CC2(CN(C(=O)c3c(C(=O)NC4CCCCC4)sc4ccccc34)C2)C(=O)N1 [Compound A7] was run?
**A.** < 100 nM

**Q.** Which IC50 (CRBN/DDB1 protein [1]) does the source give for CN(C)C(=O)c1c(C(=O)N2CC3(CC(=O)NC3=O)C2)c2ccccc2n1C [Compound A19] here?
**A.** < 100 nM
